Laboratory results as given in the NIST ThermoML archive (doi:10.1016/j.jct.2007.05.008).
± gives the expanded uncertainty stated by the source.

Experiment: mn = molality of the nth substance listed, in mol/kg
Details: 350 kPa, Liquid; for apparent molar heat capacity: Extra sensitive DSC

[I-].[K+] [potassium iodide] + O
mass density (278.15 K, m1 = 0.0151): 1001.67 ± 0.16 kg/m3 | mass density (278.15 K, m1 = 0.0299): 1003.68 ± 0.15 kg/m3 | mass density (278.15 K, m1 = 0.0701): 1008.43 ± 0.15 kg/m3 | mass density (278.15 K, m1 = 0.2001): 1024.58 ± 0.16 kg/m3 | mass density (278.15 K, m1 = 0.5376): 1064.35 ± 0.19 kg/m3 | mass density (278.15 K, m1 = 0.6957): 1081.95 ± 0.2 kg/m3 | mass density (278.15 K, m1 = 1.001): 1117.05 ± 0.23 kg/m3 | mass density (278.15 K, m1 = 2.5): 1271.29 ± 0.38 kg/m3 | mass density (278.15 K, m1 = 4.636): 1453.94 ± 0.56 kg/m3 | mass density (278.15 K, m1 = 5.479): 1515.42 ± 0.62 kg/m3 | mass density (278.15 K, m1 = 7.501): 1648.17 ± 0.76 kg/m3 | mass density (283.15 K, m1 = 0.0151): 1001.47 ± 0.16 kg/m3 | mass density (283.15 K, m1 = 0.0299): 1003.4 ± 0.15 kg/m3 | mass density (283.15 K, m1 = 0.0701): 1008.17 ± 0.15 kg/m3 | mass density (283.15 K, m1 = 0.2001): 1024.09 ± 0.16 kg/m3 | mass density (283.15 K, m1 = 0.5376): 1063.61 ± 0.19 kg/m3 | mass density (283.15 K, m1 = 0.6957): 1081.08 ± 0.2 kg/m3 | mass density (283.15 K, m1 = 1.001): 1115.82 ± 0.23 kg/m3 | mass density (283.15 K, m1 = 2.5): 1268.99 ± 0.37 kg/m3 | mass density (283.15 K, m1 = 4.636): 1450.65 ± 0.55 kg/m3 | mass density (283.15 K, m1 = 5.479): 1512.83 ± 0.62 kg/m3 | mass density (283.15 K, m1 = 7.501): 1645.23 ± 0.75 kg/m3 | mass density (288.15 K, m1 = 0.0151): 1000.88 ± 0.16 kg/m3 | mass density (288.15 K, m1 = 0.0299): 1002.77 ± 0.15 kg/m3 | mass density (288.15 K, m1 = 0.0701): 1007.55 ± 0.15 kg/m3 | mass density (288.15 K, m1 = 0.2001): 1023.33 ± 0.16 kg/m3 | mass density (288.15 K, m1 = 0.5376): 1062.62 ± 0.19 kg/m3 | mass density (288.15 K, m1 = 0.6957): 1080.04 ± 0.2 kg/m3 | mass density (288.15 K, m1 = 1.001): 1114.31 ± 0.23 kg/m3 | mass density (288.15 K, m1 = 2.5): 1266.38 ± 0.37 kg/m3 | mass density (288.15 K, m1 = 4.636): 1448.01 ± 0.55 kg/m3 | mass density (288.15 K, m1 = 5.479): 1510.11 ± 0.61 kg/m3 | mass density (288.15 K, m1 = 7.501): 1642.29 ± 0.75 kg/m3 | mass density (298.15 K, m1 = 0.0151): 998.82 ± 0.17 kg/m3 | mass density (298.15 K, m1 = 0.0299): 1000.63 ± 0.15 kg/m3 | mass density (298.15 K, m1 = 0.0701): 1005.39 ± 0.15 kg/m3 | mass density (298.15 K, m1 = 0.2001): 1021 ± 0.16 kg/m3 | mass density (298.15 K, m1 = 0.5376): 1059.83 ± 0.18 kg/m3 | mass density (298.15 K, m1 = 0.6957): 1077.25 ± 0.2 kg/m3 | mass density (298.15 K, m1 = 1.001): 1110.96 ± 0.22 kg/m3 | mass density (298.15 K, m1 = 2.5): 1261.31 ± 0.36 kg/m3 | mass density (298.15 K, m1 = 4.636): 1441.32 ± 0.55 kg/m3 | mass density (298.15 K, m1 = 5.479): 1503.36 ± 0.61 kg/m3 | mass density (298.15 K, m1 = 7.501): 1635.01 ± 0.74 kg/m3 | apparent molar heat capacity (303.15 K, m1 = 5.479): 1.3 ± 5 J/K/mol | apparent molar heat capacity (308.15 K, m1 = 4.001): 0.4 J/K/mol | apparent molar heat capacity (308.15 K, m1 = 5.479): 1.8 ± 5 J/K/mol | mass density (308.15 K, m1 = 0.0151): 995.79 ± 0.16 kg/m3 | mass density (308.15 K, m1 = 0.0299): 997.53 ± 0.15 kg/m3 | mass density (308.15 K, m1 = 0.0701): 1002.28 ± 0.15 kg/m3 | mass density (308.15 K, m1 = 0.2001): 1017.73 ± 0.15 kg/m3 | mass density (308.15 K, m1 = 0.5376): 1056.13 ± 0.18 kg/m3 | mass density (308.15 K, m1 = 0.6957): 1073.61 ± 0.19 kg/m3 | mass density (308.15 K, m1 = 1.001): 1106.78 ± 0.22 kg/m3 | mass density (308.15 K, m1 = 2.5): 1255.84 ± 0.36 kg/m3 | mass density (308.15 K, m1 = 4.636): 1434.16 ± 0.54 kg/m3 | mass density (308.15 K, m1 = 5.479): 1495.89 ± 0.6 kg/m3 | mass density (308.15 K, m1 = 7.501): 1626.88 ± 0.74 kg/m3 | apparent molar heat capacity (313.15 K, m1 = 4.001): 1.4 ± 5 J/K/mol | apparent molar heat capacity (313.15 K, m1 = 5.479): 1.7 ± 5.2 J/K/mol | apparent molar heat capacity (318.15 K, m1 = 4.001): 1.9 ± 5.2 J/K/mol | apparent molar heat capacity (318.15 K, m1 = 5.479): 1.2 ± 5.2 J/K/mol | mass density (318.15 K, m1 = 0.0151): 991.94 ± 0.16 kg/m3 | mass density (318.15 K, m1 = 0.0299): 993.68 ± 0.15 kg/m3 | mass density (318.15 K, m1 = 0.0701): 998.38 ± 0.15 kg/m3 | mass density (318.15 K, m1 = 0.2001): 1013.67 ± 0.15 kg/m3 | mass density (318.15 K, m1 = 0.5376): 1051.77 ± 0.18 kg/m3 | mass density (318.15 K, m1 = 0.6957): 1069.13 ± 0.19 kg/m3 | mass density (318.15 K, m1 = 1.001): 1101.94 ± 0.22 kg/m3 | mass density (318.15 K, m1 = 2.5): 1249.89 ± 0.35 kg/m3 | mass density (318.15 K, m1 = 4.636): 1426.64 ± 0.53 kg/m3 | mass density (318.15 K, m1 = 5.479): 1488.09 ± 0.59 kg/m3 | mass density (318.15 K, m1 = 7.501): 1618.36 ± 0.73 kg/m3 | apparent molar heat capacity (323.15 K, m1 = 4.001): 2 ± 5.2 J/K/mol | apparent molar heat capacity (323.15 K, m1 = 5.479): 0.4 J/K/mol | apparent molar heat capacity (328.15 K, m1 = 4.001): 1.7 ± 5.2 J/K/mol | mass density (328.15 K, m1 = 0.0151): 987.43 ± 0.16 kg/m3 | mass density (328.15 K, m1 = 0.0299): 989.17 ± 0.15 kg/m3 | mass density (328.15 K, m1 = 0.0701): 993.85 ± 0.15 kg/m3 | mass density (328.15 K, m1 = 0.2001): 1008.93 ± 0.15 kg/m3 | mass density (328.15 K, m1 = 0.5376): 1046.78 ± 0.17 kg/m3 | mass density (328.15 K, m1 = 0.6957): 1064 ± 0.18 kg/m3 | mass density (328.15 K, m1 = 1.001): 1096.55 ± 0.21 kg/m3 | mass density (328.15 K, m1 = 2.5): 1243.46 ± 0.35 kg/m3 | mass density (328.15 K, m1 = 4.636): 1418.83 ± 0.52 kg/m3 | mass density (328.15 K, m1 = 5.479): 1479.85 ± 0.58 kg/m3 | mass density (328.15 K, m1 = 7.501): 1609.25 ± 0.72 kg/m3 | apparent molar heat capacity (333.15 K, m1 = 4.001): 1.3 ± 5.4 J/K/mol | apparent molar heat capacity (338.15 K, m1 = 4.001): 0.6 ± 5.4 J/K/mol | mass density (338.15 K, m1 = 0.0151): 982.32 ± 0.17 kg/m3 | mass density (338.15 K, m1 = 0.0299): 984.03 ± 0.15 kg/m3 | mass density (338.15 K, m1 = 0.0701): 988.65 ± 0.15 kg/m3 | mass density (338.15 K, m1 = 0.2001): 1003.58 ± 0.14 kg/m3 | mass density (338.15 K, m1 = 0.5376): 1041.14 ± 0.17 kg/m3 | mass density (338.15 K, m1 = 0.6957): 1058.16 ± 0.18 kg/m3 | mass density (338.15 K, m1 = 1.001): 1090.66 ± 0.21 kg/m3 | mass density (338.15 K, m1 = 2.5): 1236.58 ± 0.34 kg/m3 | mass density (338.15 K, m1 = 4.636): 1410.65 ± 0.51 kg/m3 | mass density (338.15 K, m1 = 5.479): 1471.57 ± 0.57 kg/m3 | mass density (338.15 K, m1 = 7.501): 1600.65 ± 0.71 kg/m3 | mass density (348.15 K, m1 = 0.0151): 976.56 ± 0.17 kg/m3 | mass density (348.15 K, m1 = 0.0299): 978.32 ± 0.16 kg/m3 | mass density (348.15 K, m1 = 0.0701): 982.92 ± 0.15 kg/m3 | mass density (348.15 K, m1 = 0.2001): 997.75 ± 0.14 kg/m3 | mass density (348.15 K, m1 = 0.5376): 1035.02 ± 0.16 kg/m3 | mass density (348.15 K, m1 = 0.6957): 1051.97 ± 0.17 kg/m3 | mass density (348.15 K, m1 = 1.001): 1084.3 ± 0.2 kg/m3 | mass density (348.15 K, m1 = 2.5): 1229.37 ± 0.33 kg/m3 | mass density (348.15 K, m1 = 4.636): 1402.31 ± 0.51 kg/m3 | mass density (348.15 K, m1 = 5.479): 1463.16 ± 0.57 kg/m3 | mass density (348.15 K, m1 = 7.501): 1591.74 ± 0.7 kg/m3 | mass density (358.15 K, m1 = 0.0151): 970.33 ± 0.18 kg/m3 | mass density (358.15 K, m1 = 0.0299): 972.11 ± 0.16 kg/m3 | mass density (358.15 K, m1 = 0.0701): 976.68 ± 0.16 kg/m3 | mass density (358.15 K, m1 = 0.2001): 991.55 ± 0.15 kg/m3 | mass density (358.15 K, m1 = 0.5376): 1028.65 ± 0.16 kg/m3 | mass density (358.15 K, m1 = 0.6957): 1045.42 ± 0.17 kg/m3 | mass density (358.15 K, m1 = 1.001): 1077.52 ± 0.2 kg/m3 | mass density (358.15 K, m1 = 2.5): 1221.83 ± 0.32 kg/m3 | mass density (358.15 K, m1 = 4.636): 1393.66 ± 0.5 kg/m3 | mass density (358.15 K, m1 = 5.479): 1455.05 ± 0.56 kg/m3 | mass density (358.15 K, m1 = 7.501): 1583.19 ± 0.69 kg/m3 | mass density (368.15 K, m1 = 0.0151): 963.58 ± 0.17 kg/m3 | mass density (368.15 K, m1 = 0.0299): 965.34 ± 0.17 kg/m3 | mass density (368.15 K, m1 = 0.0701): 969.93 ± 0.16 kg/m3 | mass density (368.15 K, m1 = 0.2001): 984.74 ± 0.15 kg/m3 | mass density (368.15 K, m1 = 0.5376): 1021.81 ± 0.16 kg/m3 | mass density (368.15 K, m1 = 0.6957): 1038.47 ± 0.16 kg/m3 | mass density (368.15 K, m1 = 1.001): 1070.31 ± 0.19 kg/m3 | mass density (368.15 K, m1 = 2.5): 1213.99 ± 0.33 kg/m3 | mass density (368.15 K, m1 = 4.636): 1384.78 ± 0.49 kg/m3 | mass density (368.15 K, m1 = 5.479): 1446.45 ± 0.55 kg/m3 | mass density (368.15 K, m1 = 7.501): 1574.23 ± 0.68 kg/m3
